Test results from publication PMC4076210, “Discovery of Novel AKT Inhibitors with Enhanced Anti-Tumor Effects in Combination with the MEK Inhibitor” (PLoS ONE, 2014).

Columns and labels:
[1] = design: method as in PMID 18381444; details: mice; cited from earlier work
CAPAN-2 tumor xenografts = experiment: Xenograft tumor growth inhibition, combination with MEK inhibitor; assay type: in vivo, mouse; details: 0.3 mg/kg, day 69
Method: (§1) Tumors were initiated by injecting either cells (SKOV3, CAPAN-2 and HPAC) or a tumor fragments (BT474) subcutaneously into 6–8 week female athymic nude (SKOV3) and SCID (all others) mice. Once tumors reached between 120 and 300 mm^3, mice were randomized according to tumor volume into groups of n = 7–10 mice per treatment. GSK2110183 and GSK2141795 were administered daily at various doses by oral gavage. In combination experiments, GSK1120212 was also administered daily by oral gavage. Tumor volumes and body weight were measured twice weekly, tumor volume was measured with calipers and calculated using equation: […]. Results are represented as percent inhibition on completion of dosing = 100 x [1- average growth of drug-treated population/average growth of vehicle-treated control population].

HPAC tumor xenografts = experiment: as above; assay type: in vivo, mouse; details: 0.3 mg/kg daily, day 42
Method: as §1

Row | SMILES | hyperglycemia (blood glucose) [1] [mg/dL] | TGI (CAPAN-2 tumor xenografts) [%] | TGI (HPAC tumor xenografts) [%]
1 | CCn1c(-c2nonc2N)nc2c(C#CC(C)(C)O)ncc(OC[C@H]3CCCNC3)c21 [GSK690693] | ~500 | – | –
2 | CC(=O)Nc1cccc(-n2c(=O)n(C3CC3)c(=O)c3c(Nc4ccc(I)cc4F)n(C)c(=O)c(C)c32)c1 [GSK1120212, trametinib, reference compound] | – | 90 | 65
